From patent publication US10087187B2, “Imidazopyridazine derivatives as PI3KB inhibitors” (Janssen Pharmaceutica NV, priority 2014, dated 2018)
Where two headings read alike, the source gives them in different places.

Tests used:
PIK3Cα_h = PIK3Cα_h (Homo sapiens (Human), UniProt P42336); test: KINOMEscan enzyme binding assay, PIK3Cα; conditions: DiscoveRx
Protocol: (§1) Enzyme Binding Assays (KINOMEscan®) Kinase enzyme binding affinities of compounds disclosed herein were determined using the KINOMEscan technology performed by DiscoveRx Corporation, San Diego, Calif., USA (www.kinomescan.com).

PIK3Cβ_h = PIK3Cβ_h (Homo sapiens (Human), UniProt P42338); test: KINOMEscan enzyme binding assay, PIK3Cβ; conditions: DiscoveRx
PIK3Cβ_h, sequence (P42338 whole entry): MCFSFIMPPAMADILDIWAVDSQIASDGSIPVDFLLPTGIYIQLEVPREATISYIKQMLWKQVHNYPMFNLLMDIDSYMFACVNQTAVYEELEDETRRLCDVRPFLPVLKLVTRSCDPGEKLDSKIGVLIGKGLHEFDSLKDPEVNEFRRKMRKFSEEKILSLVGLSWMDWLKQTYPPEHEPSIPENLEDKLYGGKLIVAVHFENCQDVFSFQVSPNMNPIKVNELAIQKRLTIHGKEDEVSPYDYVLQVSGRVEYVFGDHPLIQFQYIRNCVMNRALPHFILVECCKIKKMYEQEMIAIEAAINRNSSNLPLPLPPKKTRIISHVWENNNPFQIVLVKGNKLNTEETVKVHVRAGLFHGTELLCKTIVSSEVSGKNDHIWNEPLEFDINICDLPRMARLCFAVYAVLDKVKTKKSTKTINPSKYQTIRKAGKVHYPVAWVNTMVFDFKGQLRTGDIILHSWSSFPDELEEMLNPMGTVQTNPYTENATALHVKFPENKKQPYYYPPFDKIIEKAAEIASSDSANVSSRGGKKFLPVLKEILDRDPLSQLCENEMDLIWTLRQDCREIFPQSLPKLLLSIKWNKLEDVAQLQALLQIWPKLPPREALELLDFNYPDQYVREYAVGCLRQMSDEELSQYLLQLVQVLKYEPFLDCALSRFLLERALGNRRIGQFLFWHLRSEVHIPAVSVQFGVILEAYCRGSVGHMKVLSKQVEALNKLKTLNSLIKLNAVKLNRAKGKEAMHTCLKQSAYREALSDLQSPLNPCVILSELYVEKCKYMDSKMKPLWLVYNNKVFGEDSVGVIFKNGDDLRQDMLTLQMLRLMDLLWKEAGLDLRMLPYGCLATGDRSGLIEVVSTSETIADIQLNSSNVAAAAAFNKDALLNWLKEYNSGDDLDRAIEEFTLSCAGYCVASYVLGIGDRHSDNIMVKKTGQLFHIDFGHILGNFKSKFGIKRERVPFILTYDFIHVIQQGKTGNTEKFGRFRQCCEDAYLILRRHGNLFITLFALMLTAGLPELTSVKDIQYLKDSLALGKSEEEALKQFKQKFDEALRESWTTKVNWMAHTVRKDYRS
Protocol: as §1, with “(www.kinomescan.com). Table A reports the obtained Kd values (nM), with the Kd being the inhibitor binding constant: […]” for “(www.kinomescan.com).”

PIK3Cδ_h = PIK3Cδ_h (Homo sapiens (Human), UniProt O00329); test: KINOMEscan enzyme binding assay, PIK3Cδ; conditions: DiscoveRx
PIK3Cδ_h, sequence (O00329 whole entry): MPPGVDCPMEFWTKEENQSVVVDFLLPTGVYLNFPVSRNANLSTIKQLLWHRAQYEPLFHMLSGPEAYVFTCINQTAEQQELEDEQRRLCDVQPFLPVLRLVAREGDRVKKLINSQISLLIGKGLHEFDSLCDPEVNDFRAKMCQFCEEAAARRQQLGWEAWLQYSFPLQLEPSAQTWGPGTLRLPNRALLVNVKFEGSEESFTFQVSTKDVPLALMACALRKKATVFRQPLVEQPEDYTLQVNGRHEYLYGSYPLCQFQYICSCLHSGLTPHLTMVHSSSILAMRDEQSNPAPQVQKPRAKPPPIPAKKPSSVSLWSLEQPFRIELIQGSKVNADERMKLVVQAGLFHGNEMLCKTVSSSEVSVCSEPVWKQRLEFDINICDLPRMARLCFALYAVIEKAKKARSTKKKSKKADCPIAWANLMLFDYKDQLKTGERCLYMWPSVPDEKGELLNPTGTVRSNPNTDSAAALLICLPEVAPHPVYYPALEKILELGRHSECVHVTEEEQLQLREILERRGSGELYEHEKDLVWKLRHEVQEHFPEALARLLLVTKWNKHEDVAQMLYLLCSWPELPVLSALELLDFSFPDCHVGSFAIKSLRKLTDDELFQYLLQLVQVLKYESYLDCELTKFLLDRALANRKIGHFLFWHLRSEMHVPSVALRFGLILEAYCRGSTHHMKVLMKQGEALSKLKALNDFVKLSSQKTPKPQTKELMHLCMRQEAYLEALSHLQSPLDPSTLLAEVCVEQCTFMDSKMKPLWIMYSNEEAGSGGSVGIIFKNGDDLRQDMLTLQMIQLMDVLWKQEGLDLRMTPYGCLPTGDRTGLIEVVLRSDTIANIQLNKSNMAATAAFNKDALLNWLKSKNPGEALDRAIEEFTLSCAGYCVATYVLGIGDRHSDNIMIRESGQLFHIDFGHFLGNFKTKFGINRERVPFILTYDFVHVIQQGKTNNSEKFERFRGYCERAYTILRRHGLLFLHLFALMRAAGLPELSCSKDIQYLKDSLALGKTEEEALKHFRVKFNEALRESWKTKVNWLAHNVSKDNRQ
Protocol: as §1, with “(www.kinomescan.com). Table A reports the obtained Kd values (nM), with the Kd being the inhibitor binding constant: […]” for “(www.kinomescan.com).”

PIK3Cγ_h = PIK3Cγ_h (Homo sapiens (Human), UniProt P48736); test: KINOMEscan enzyme binding assay, PIK3Cγ; conditions: DiscoveRx
PIK3Cγ_h, sequence (P48736 whole entry): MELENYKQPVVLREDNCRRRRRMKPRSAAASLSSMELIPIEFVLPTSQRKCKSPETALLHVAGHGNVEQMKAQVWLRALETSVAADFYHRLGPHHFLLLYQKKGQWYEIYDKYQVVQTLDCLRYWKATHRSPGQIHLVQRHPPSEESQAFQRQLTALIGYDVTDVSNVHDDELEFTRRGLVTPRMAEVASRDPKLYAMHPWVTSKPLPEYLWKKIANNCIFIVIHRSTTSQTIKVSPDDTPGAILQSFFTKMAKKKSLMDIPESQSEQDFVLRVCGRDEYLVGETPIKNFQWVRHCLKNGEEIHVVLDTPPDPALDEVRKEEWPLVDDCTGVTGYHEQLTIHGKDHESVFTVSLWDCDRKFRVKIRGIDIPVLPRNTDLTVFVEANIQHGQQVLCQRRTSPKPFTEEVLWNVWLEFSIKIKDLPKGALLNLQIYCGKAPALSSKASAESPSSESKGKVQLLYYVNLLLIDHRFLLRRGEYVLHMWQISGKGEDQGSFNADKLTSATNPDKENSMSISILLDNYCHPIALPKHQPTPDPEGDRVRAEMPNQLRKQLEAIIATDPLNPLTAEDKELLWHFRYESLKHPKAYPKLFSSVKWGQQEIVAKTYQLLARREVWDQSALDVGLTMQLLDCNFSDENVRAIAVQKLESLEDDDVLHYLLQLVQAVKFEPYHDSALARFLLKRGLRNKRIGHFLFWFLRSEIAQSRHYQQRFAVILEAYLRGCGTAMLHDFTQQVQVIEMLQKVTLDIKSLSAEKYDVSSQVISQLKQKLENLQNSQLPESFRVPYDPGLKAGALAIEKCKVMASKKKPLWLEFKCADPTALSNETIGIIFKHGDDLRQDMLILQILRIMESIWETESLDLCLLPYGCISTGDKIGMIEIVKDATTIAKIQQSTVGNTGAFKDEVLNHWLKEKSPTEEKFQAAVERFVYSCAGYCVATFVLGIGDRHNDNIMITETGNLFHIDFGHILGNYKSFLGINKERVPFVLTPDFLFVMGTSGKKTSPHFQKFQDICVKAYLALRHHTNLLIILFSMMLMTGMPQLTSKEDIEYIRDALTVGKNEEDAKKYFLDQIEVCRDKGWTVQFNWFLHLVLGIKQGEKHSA
Protocol: as §1

MTOR_h = MTOR_h (Homo sapiens (Human), UniProt P42345); test: KINOMEscan enzyme binding assay, MTOR; conditions: DiscoveRx
Protocol: as §1

[1] = system: Akt phosphorylated at Ser473 in PC-3 cells; test: Cellular assay: phosphorylation of Akt (Ser473) in PC-3 cells, MSD ELISA; type: cell-based; conditions: 60 min incubation with compound, read-out: IC50 pAkt_S473
Protocol: (§2) Cellular activity of PI3Kβ inhibitors was determined by quantifying the phosphorylation of Akt in PC-3 cells. Akt phosphorylated at Ser473 and Thr308 were measured using an enzyme-linked immunosorbent assay (ELISA; Meso Scale Discovery (MSD), Gaithersburg, Md.) and specific primary antibodies from MSD.
(§3) On day 1, PC3 cells (ATCC # […]) were seeded into PerkinElmer MW96 plates at 25.000 cells per well, in 75 μl complete culture medium (DMEM (Dulbecco's Modified Eagle's Medium) high glucose, AQmedia™, D0819, Sigma-Aldrich) containing 10% heat inactivated FCS (Fetal Bovine Serum) and incubated at 37° C., 5% CO2 during 24 hours. On day 2, compound or DMSO (dimethyl sulfoxide) (0.3%) was added and cells were further incubated for 60 min at 37° C., 5% CO2 in a total volume of 100 μl of medium.
(§4) The phosphoprotein assay was executed according to vendor instructions in the Phospho-Akt (Ser473) Assay Whole Cell Lysate Kit (MSD # K15100D-3) and the Phospho-Akt (Thr308) Assay Whole Cell Lysate Kit (MSD # K151DYD-3) using the lysis, blocking and wash buffer provided.
(§5) Briefly, at the end of the cell treatment period, media were removed by aspiration and adherent cells were lysed in 50 μl ice-cold lysis buffer. MSD plates are supplied pre-coated with capture antibodies for Phospho-Akt (Ser473 and Thr308). After blocking, lysates from tissue culture plates were added and plates were washed. Then, a solution containing the detection antibody (anti-total Akt conjugated with an electrochemiluminescent compound-MSD Sulfo-tag label) was added. The signals were detected using an MSD SECTOR Imager 6000 and are proportional to the phospho-Akt titres.
(§6) Data were processed. The percentage of inhibition was plotted against the log concentration of test compounds, and the sigmoidal log concentration-effect curve of best fit was calculated by nonlinear regression analysis. From these concentration-response curves, the IC50 values were calculated. Five concentrations were used for curve fitting.

[2] = system: Akt phosphorylated at Thr308 in PC-3 cells; test: Cellular assay: phosphorylation of Akt (Thr308) in PC-3 cells, MSD ELISA; type: cell-based; conditions: 60 min incubation with compound, read-out: IC50 pAkt_Thr308
Protocol: as §2, §3, §4, §5, §6

PIK3Cα_h, sequence (P42336 whole entry): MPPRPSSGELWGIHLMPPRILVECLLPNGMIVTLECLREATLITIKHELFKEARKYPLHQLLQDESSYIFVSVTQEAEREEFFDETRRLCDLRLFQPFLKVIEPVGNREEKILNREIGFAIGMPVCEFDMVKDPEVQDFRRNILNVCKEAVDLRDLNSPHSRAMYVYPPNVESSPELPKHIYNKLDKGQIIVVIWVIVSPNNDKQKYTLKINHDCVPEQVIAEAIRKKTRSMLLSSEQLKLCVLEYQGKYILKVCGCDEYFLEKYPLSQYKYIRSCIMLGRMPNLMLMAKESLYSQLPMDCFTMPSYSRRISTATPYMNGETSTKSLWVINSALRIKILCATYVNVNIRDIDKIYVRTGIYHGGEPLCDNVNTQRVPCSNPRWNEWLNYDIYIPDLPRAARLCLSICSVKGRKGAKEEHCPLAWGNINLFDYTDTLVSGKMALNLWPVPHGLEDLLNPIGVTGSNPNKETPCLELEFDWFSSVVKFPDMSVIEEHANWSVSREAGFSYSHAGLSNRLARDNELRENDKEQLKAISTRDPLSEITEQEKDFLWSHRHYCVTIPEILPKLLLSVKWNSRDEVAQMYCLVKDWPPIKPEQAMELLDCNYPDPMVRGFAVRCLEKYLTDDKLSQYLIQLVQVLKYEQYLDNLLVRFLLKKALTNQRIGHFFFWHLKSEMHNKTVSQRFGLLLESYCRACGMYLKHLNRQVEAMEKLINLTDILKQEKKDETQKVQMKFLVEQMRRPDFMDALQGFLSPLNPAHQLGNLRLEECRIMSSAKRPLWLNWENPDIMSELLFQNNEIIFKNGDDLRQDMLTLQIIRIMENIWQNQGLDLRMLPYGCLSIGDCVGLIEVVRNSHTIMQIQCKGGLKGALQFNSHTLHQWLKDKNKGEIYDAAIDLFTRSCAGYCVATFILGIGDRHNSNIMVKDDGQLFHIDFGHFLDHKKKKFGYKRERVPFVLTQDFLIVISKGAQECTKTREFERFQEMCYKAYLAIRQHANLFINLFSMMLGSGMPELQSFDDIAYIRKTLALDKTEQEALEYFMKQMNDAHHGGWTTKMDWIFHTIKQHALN

SMILES | Kd (PIK3Cα_h) | Kd (PIK3Cβ_h) | Kd (PIK3Cδ_h) | Kd (PIK3Cγ_h) | Kd (MTOR_h) | IC50 ([1]; Homo sapiens, PC-3, 1 h) | IC50 ([2]; Homo sapiens, PC-3, 1 h) | IC50 [1] | IC50 [2]
CC(=O)NCc1nc2c(-c3ncc[nH]3)cc(N3CCOCC3)nn2c1Cc1cccc(C(F)(F)F)c1C [Compound 18] | > 30.2 µM | 0.002 µM | 0.059 µM | > 30.2 µM | > 30.2 µM | 0.033 µM | 0.011 µM |  | 
Cc1c(Cc2c(CO)nc3c(-c4ncc[nH]4)cc(N4CCOCC4)nn23)cccc1C(F)(F)F [Compound 20] | 1.7 µM | 0.0022 µM | 0.085 µM | 4.79 µM | > 10 µM | 0.033 µM | ~0.025 µM |  | 
Cc1c(Cc2c(CO)nc3c(-c4ccn[nH]4)cc(N4CCOCC4)nn23)cccc1C(F)(F)F [Compound 21] | 1.58 µM | 0.009 µM | 0.24 µM | 0.617 µM | 0.178 µM | 0.148 µM | 0.05 µM |  | 
Cc1c(Cc2c(CO)nc3c(C(=O)O)cc(N4CCOCC4)nn23)cccc1C(F)(F)F [Compound 22] | 1.58 µM | 0.0012 µM | 0.048 µM | > 15.1 µM | 10.7 µM | > 0.513 µM | > 0.513 µM |  | 
Cc1c(Cc2c(CCO)nc3c(N)cc(N4CCOCC4)nn23)cccc1C(F)(F)F [Compound 23] | 20.9 µM | 0.003 µM | 0.276 µM | 23 µM | 20.6 µM | 0.064 µM | 0.049 µM |  | 
Cc1c(Cc2c(CCO)nc3c(-c4c[nH]cn4)cc(N4CCOCC4)nn23)cccc1C(F)(F)F [Compound 24] | 1.11 µM | 0.003 µM | 0.147 µM | 3.36 µM | 2.49 µM | 0.043 µM | 0.037 µM |  | 
Cc1c(Cc2c(CO)nc3c(-c4c[nH]cn4)cc(N4CCOC(C)C4)nn23)cccc1C(F)(F)F (centres unmarked) [Compound 25] | > 30.2 µM | 0.2 µM | > 30.2 µM | > 30.2 µM | 1.18 µM |  |  | 0.447 µM | > 0.513 µM
Cc1c(Cc2c(CO)nc3c(N)cc(N4CCOC(C)C4)nn23)cccc1C(F)(F)F (centres unmarked) [Compound 26] | > 30.2 µM | 0.331 µM | 13.8 µM | 11.7 µM | 8.51 µM | > 0.513 µM | ~0.309 µM |  | 
Cc1c(Cc2c(CO)nc3c(-c4c[nH]cn4)cc(N4CCOC(C)C4)nn23)cccc1C(F)(F)F (centres unmarked) [Compound 27] | 0.617 µM | 0.0024 µM | 0.058 µM | 0.479 µM | 0.447 µM |  |  | 0.042 µM | 0.014 µM
Cc1nc2c(C(=O)O)cc(N3CCOC(C)C3)nn2c1Cc1cccc(C(F)(F)F)c1C (centres unmarked) [Compound 28] | 2.09 µM | 0.0025 µM | 0.083 µM | 5.5 µM | 21.4 µM | ~0.407 µM | 0.38 µM |  | 
Cc1nc2c(C(=O)O)cc(C3=CCOCC3)nn2c1Cc1cccc(C(F)(F)F)c1C [Compound 29] | 3.39 µM | 0.007 µM | 0.2 µM | 12.3 µM | > 30.2 µM | > 0.513 µM | ~0.513 µM |  | 
Cc1c(Cc2c(C(C)O)nc3c(-c4c[nH]cn4)cc(N4CCOCC4)nn23)cccc1C(F)(F)F (centres unmarked) [Compound 30] | 1.18 µM | 0.0026 µM | 0.129 µM | 4.57 µM | 2.19 µM | 0.059 µM | ~0.042 µM |  | 
Cc1c(Cc2c(C(C)O)nc3c(-c4ncc[nH]4)cc(N4CCOCC4)nn23)cccc1C(F)(F)F (centres unmarked) [Compound 31] | 2.29 µM | 0.0025 µM | 0.071 µM | 17 µM | > 10 µM | 0.046 µM | 0.022 µM |  | 
Cc1c(Cc2c(C(C)O)nc3c(N)cc(N4CCOCC4)nn23)cccc1C(F)(F)F (centres unmarked) [Compound 32] | 14.8 µM | 0.0018 µM | 0.355 µM | 12 µM | 22.4 µM | 0.087 µM | 0.035 µM |  | 
